Measured values from publication PMC7608663, “Pharmacokinetic–pharmacodynamic modelling of the hypoglycaemic effect of pulsatile administration of human insulin in rats” (Scientific Reports, 2020).

Legend:
[1] = system: plasma glucose concentration; experiment: Hypoglycaemic effect (plasma glucose) after intravenous INS, PK-PD indirect response modelling; assay type: in vivo, rat
Text: An indirect response model was used to analyse the PK–PD relationship. The differential equation for the INS stimulus of the model is as follows:5 dGlc/dt=KGin-1+Smax∙SIG^γ/SC50^γ+SIG^γkGout∙Glc, where Glc is the plasma glucose concentration (mg/dL), SIG is the theoretical signal strength concerned with the hypoglycaemic effect of INS, Smax is the maximum effect, SC50 is the SIG producing 50% of Smax, r is Hill’s constant, KGin is the zero-order rate constant concerned with endogenous glucose production, and kGout is the first-order rate constant (min^−1) concerned with glucose elimination. Before INS is administered, the observed baseline level of Glc is maintained as G00 (105.12 mg/dL), which is determined by KGin = kGout.G00. Equation (5) can comprehensively express the mechanism of action of INS that is not assumed in the following model.
To assess the contribution of the receptor-binding process of INS to the hypoglycaemic effect, the INS receptor-based PK–PD model (IR model) was designed as follows:6 ϕ=CIns∙100/Kd+CIns-ϕ00.
We assumed that SIG is equal to the value of Φ in this model. To evaluate the contribution of the translocation process to the hypoglycaemic effect, the GLUT4 translocation-based PK–PD model (GT model) was designed as follows:7 dG4A/dt=α∙CIns-C00-G4A/TAB, 8 dG4B/dt=G4A/TAB-G4B/TBA. […]

[2] = system: INS receptors, rat soleus muscle cells; settings: fixed value in the IR model, read-out: dissociation constant (Kd); cited from earlier work
Text: In the post-prandial state, the uptake of glucose from the blood in vivo mainly occurs in skeletal muscle, which expresses INS receptors. […] Although there are various kinds of skeletal muscle in the body, it would not be useful to individually model each receptor in all skeletal muscles, because this complicates the model. […] We assumed that SIG is equal to the value of Φ in this model. To evaluate the contribution of the translocation process to the hypoglycaemic effect, the GLUT4 translocation-based PK–PD model (GT model) was designed as follows:7 dG4A/dt=α∙CIns-C00-G4A/TAB, 8 dG4B/dt=G4A/TAB-G4B/TBA. || page 3: Parameters Estimated values Pharmacokinetic parameters k12 (min-1) 0.843 ± 0.25 k (min-1) 0.419 ± 0.073 21 k10 (min-1) 0.000314 ± 0.0079 Km (ng/kg) 1538 ± 624 Vmax (ng/kg/min) 3243 ± 649 Vc (mL/kg) 29.3 ± 6.6 Pharmacodynamic parameters of the IR model Kd (nmol/L) 2.062 FIX SC50IR (%) 7.60 ± 1.8 SmaxIR 3.01 ± 0.31 γ 2.25 ± 1.8 IR kGoutIR (min-1) 0.0208 ± 0.0018 Pharmacodynamic parameters of the GT model α 0.153 ± 0.56 T (min) 3 FIX AB TBA (min) 20 FIX SC50GT 100.22 ± 354 SmaxGT 2.58 ± 1.3 γGT 0.736 ± 0.11 kGoutGT (min-1) 0.141 ± 0.021 Supplementary Table S1. Pharmacokinetic and pharmaco ...

[3] = rat, in vivo, iv; SD
Experimental: Animal experiments were performed following the procedures as described earlier[26], with slight adaptations. In short, male Wistar rats (Japan SLC, Shizuoka, Japan) weighing 270–320 g were used in this study. Rats were housed in controlled environmental facilities (temperature: 24 ± 1 °C, humidity: 55% ± 10%) under a 12:12-h light–dark cycle (06:00 h/18:00 h) for more than 1 week and allowed free access to a standard diet and tap water. One day before the experiment, rats were anaesthetized with ethyl ether and implanted surgically with a phycon tube connected to a PE50 catheter in the jugular vein for drug administration and another phycon-PE50 catheter in the femoral vein for blood sampling. Both catheters were externalized through the back in the neck region and secured. Unless otherwise specified, all animal experiments were conducted without restraint or anaesthesia and in a fasted state. On the day of the experiment, each rat was housed in an individual cage and left alone for at least 1 h. INS was dissolved in a 0.1% bovine serum albumin solution. Pulsatile administration of INS was performed by repeated intravenous bolus injections at constant intervals of 6–60 min within 2 h (total dose: 0.5 IU/kg). As controls, a single bolus injection or 2-h infusion were also conducted at doses of 0.5 IU/kg and 0.25 IU/kg/h, respectively. INS (0.025–0.5 IU/kg) was intravenously injected to estimate PK and PD parameters. Blood samples (≤ 0.1 mL) were withdrawn from the femoral vein before and at designated times after dosing. The blood samples were transferred to heparinized tubes, then centrifuged (12,000 × g, 5 min). The isolated plasma was stored frozen at − 20 °C until analysis. Immunoreactive INS concentrations in plasma were determined using an enzyme-linked immunosorbent assay (ELISA) kit (Shibayagi, Gunma, Japan). The mutarotase glucose oxidase method kit (Wako Pure Chemical Industries, Osaka, Japan) was used to measure plasma glucose concentrations. […]
The concentration–time data were analysed by the nonlinear regression program FKDM[27]. […]

For Human recombinant INS (Humulin R), the “time required for the maximal hypoglycaemic effect” value ([1]; after single i.v. bolus administration, rats (Fig. 3)) is given as “about 20 min”, the “area between the effect-time curve and the basal concentration (AUE), pulsatile administration compared with single bolus” value ([1]; total 0.5 IU/kg i.v. within 2 h, 2-20 pulses vs bolus 0.5 IU/kg, rats, depends on pulse rate, saturated above four injections, Dunnett's test, n = 3-4) is given as “significantly higher” and the Kd [2] is given as 2.06 nM. For the same substance, the “Km, Michaelis-Menten kinetic constant of elimination” value [3] was 1538 ± 624 ng/kg, the “Vc, volume of distribution for the central (plasma) INS compartment” value [3] was 0.0293 ± 0.0066 L/kg and the “Vmax, Michaelis-Menten kinetic constant of elimination” value [3] was 3243 ± 649 ng/kg/min.
